According to US8367864B2, “Dimeric double metal salts of (−)-hydroxycitric acid, methods of making and uses of same” (Glykon Technologies Group, LLC, priority 2006, dated 2013):
Values after ≈ are worked out from the molar mass of the structure shown.

How the values were obtained:
[1] = Alcohol solubility (1% wt in 50% v/v ethanol); format: physicochemical; conditions: tested at 1% weight in 50% (v/v) ethanol solution
[2] = kinetic study
Description: This structure is like the soluble double metal HCA salts disclosed by Balasubramanyam et al., (U.S. Pat. No. 6,160,172, issued Dec. 12, 2000; U.S. Pat. No. 6,395,296, issued May 28, 2002).

[3] = in vivo; cited from earlier work
[4] = conditions that elevate de novo lipogenesis; cited from earlier work
[5] = chronic administration; resting and exercising conditions; cited from earlier work
[6] = system: human hepatoma cell line Hep G2; conditions: cited from earlier work
[7] = system: middle-aged rats fed a 30% fat diet; conditions: cited from earlier work

SMILES: O=C(O)CC(O)(C(=O)O)C(O)C(=O)O (centres unmarked) [K/Mg-HCA monomer]
- solubility (physchem): 250 mg/mL (≈ 1200 mM)
- Alcohol Solubility (50% v/v alcohol; 1% wt test) [1]: 40%
- absorption compared to the dimer [2]: less-absorbed

SMILES: O=C(O)CC(O)(C(=O)O)C(O)C(=O)O (single isomer, unassigned; (-)) [HCA, (−)-hydroxycitric acid]
- appetite and satiety [3]: promote appetite suppression and satiety
- energy expenditure [4]: increased
- fat synthesis [4]: reduced
- respiratory exchange ratio [5]: significantly lower
- incorporation of [1,5-14C]citrate into fatty acids and cholesterol ([6]; 2.5 h and 18 h incubations, 0.5 mM or higher): strongly inhibited
- Cholesterol biosynthesis, of the control value ([6]; incorporation of tritium from tritiated water): 27%

SMILES: O=C([O-])CC(O)(C(=O)[O-])C(O)C(=O)[O-].[K+].[K+].[K+] (centres unmarked) [potassium HCA]
- fat as a percentage of body weight [7]: reducing
- protein as a percentage of body weight [7]: increased
